From PMC7024313, “Identification and Repurposing of Trisubstituted Harmine Derivatives as Novel Inhibitors of Mycobacterium tuberculosis Phosphoserine Phosphatase” (Molecules, 2020)

What follows are compounds tested against T1, SerB2 (M. tuberculosis phosphoserine phosphatase) (Mycobacterium tuberculosis, UniProt O53289) (assay: malachite green phosphatase assay).
T1 sequence (O53289 whole entry): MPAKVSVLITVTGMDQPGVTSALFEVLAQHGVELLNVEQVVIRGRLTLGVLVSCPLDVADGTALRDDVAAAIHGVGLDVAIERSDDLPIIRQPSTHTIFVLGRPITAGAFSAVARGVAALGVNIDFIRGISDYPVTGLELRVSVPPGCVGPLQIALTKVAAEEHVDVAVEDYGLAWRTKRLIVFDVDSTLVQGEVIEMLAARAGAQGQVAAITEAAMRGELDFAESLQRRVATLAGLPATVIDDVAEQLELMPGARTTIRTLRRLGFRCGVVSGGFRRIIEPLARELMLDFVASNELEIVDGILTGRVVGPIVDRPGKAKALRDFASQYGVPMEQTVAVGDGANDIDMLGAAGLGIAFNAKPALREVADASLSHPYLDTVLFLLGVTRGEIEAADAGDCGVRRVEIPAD
Assay type: biochemical
Excerpt: malachite green phosphatase assay on SerB2 (M. tuberculosis phosphoserine phosphatase)
Compound `Cc1c2c(cc[n+]1CCC(C)C)c1ccc(OCC3CCCCC3)cc1n2CC1CCCCC1` [compound 90, 90] has an inhibition at 10 µM of 16.5 ± 13.3%.
In the case of `Cc1c2c(cc[n+]1CCc1ccccc1)c1ccc(OCc3ccccc3)cc1n2Cc1ccccc1` [compound 94, 94], the inhibition at 10 µM is reported as 15.6 ± 4.3%.

What follows are compounds tested against T1, SerB2 (M. tuberculosis phosphoserine phosphatase) (assay: malachite green phosphatase assay, slope replot fitted to Hill-type model).
Assay type: biochemical
Excerpt: malachite green phosphatase assay, slope replot fitted to Hill-type model on SerB2 (M. tuberculosis phosphoserine phosphatase)
Work on `Cc1c2c(cc[n+]1CCC(C)C)c1ccc(OCCC(C)C)cc1n2CCC(C)C` [compound 88, 88] yielded a Ki of 18.3 ± 2.3 µM.
`Cc1c2c(cc[n+]1CCc1ccccc1)c1ccc(OCC3CCCCC3)cc1n2CC1CCCCC1` [compound 91, 91] was tested, and the Ki was 3.27 ± 0.12 µM.
Compound `Cc1c2c(cc[n+]1Cc1ccc3ccccc3c1)c1ccc(OCc3ccccc3)cc1n2Cc1ccccc1` [compound 95, 95] has a Ki of 6.66 ± 0.39 µM.
In the case of `Cc1c2c(cc[n+]1CCC1CCCCC1)c1ccc(OCC3CCCCC3)cc1n2CC1CCCCC1` [compound 124, 7-(cyclohexylmethoxy)-9-(cyclohexylmethyl)-1-methyl-2-(2-cyclohexylethyl)-β -carboline-2-ium bromide], the Ki is reported as 1.75 ± 0.11 µM.
